# Counter-ions that a name gives are not always drawn.
# Biological target: T1, HiBiT tagged PARP14 (Homo sapiens, UniProt Q460N5)
# T1 construct: engineered to contain a HiBiT tag on both alleles of the PARP14 gene; endogenous in cells; host or cells: Jurkat cells stably transfected with LgBiT (Promega), PARP14 locus edited by CRISPR/Cas9
# Assay: HiBiT assay for the degradation of PARP14 (HiBiT tagged PARP14 in LgBiT expressing Jurkat cells, 2 or 24 hours)
# Assay type: cell-based
# Conditions: Assay B (Example B): HiBiT tagged PARP14 degradation in LgBiT expressing Jurkat cells, read-out: DC50
# Method in brief: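 Jurkat cells stably expressing LgBiT with CRISPR knock-in of C-terminal HiBiT on both PARP14 alleles, 5,000 cells/well, treated with compound dose-response at 37 °C for 2 or 24 h. Live Cell Substrate luminescence normalised to 0.1% DMSO wells; DC50 from 4-parameter fit with floating top, bottom, Hill.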
# T1 sequence (Q460N5 whole entry): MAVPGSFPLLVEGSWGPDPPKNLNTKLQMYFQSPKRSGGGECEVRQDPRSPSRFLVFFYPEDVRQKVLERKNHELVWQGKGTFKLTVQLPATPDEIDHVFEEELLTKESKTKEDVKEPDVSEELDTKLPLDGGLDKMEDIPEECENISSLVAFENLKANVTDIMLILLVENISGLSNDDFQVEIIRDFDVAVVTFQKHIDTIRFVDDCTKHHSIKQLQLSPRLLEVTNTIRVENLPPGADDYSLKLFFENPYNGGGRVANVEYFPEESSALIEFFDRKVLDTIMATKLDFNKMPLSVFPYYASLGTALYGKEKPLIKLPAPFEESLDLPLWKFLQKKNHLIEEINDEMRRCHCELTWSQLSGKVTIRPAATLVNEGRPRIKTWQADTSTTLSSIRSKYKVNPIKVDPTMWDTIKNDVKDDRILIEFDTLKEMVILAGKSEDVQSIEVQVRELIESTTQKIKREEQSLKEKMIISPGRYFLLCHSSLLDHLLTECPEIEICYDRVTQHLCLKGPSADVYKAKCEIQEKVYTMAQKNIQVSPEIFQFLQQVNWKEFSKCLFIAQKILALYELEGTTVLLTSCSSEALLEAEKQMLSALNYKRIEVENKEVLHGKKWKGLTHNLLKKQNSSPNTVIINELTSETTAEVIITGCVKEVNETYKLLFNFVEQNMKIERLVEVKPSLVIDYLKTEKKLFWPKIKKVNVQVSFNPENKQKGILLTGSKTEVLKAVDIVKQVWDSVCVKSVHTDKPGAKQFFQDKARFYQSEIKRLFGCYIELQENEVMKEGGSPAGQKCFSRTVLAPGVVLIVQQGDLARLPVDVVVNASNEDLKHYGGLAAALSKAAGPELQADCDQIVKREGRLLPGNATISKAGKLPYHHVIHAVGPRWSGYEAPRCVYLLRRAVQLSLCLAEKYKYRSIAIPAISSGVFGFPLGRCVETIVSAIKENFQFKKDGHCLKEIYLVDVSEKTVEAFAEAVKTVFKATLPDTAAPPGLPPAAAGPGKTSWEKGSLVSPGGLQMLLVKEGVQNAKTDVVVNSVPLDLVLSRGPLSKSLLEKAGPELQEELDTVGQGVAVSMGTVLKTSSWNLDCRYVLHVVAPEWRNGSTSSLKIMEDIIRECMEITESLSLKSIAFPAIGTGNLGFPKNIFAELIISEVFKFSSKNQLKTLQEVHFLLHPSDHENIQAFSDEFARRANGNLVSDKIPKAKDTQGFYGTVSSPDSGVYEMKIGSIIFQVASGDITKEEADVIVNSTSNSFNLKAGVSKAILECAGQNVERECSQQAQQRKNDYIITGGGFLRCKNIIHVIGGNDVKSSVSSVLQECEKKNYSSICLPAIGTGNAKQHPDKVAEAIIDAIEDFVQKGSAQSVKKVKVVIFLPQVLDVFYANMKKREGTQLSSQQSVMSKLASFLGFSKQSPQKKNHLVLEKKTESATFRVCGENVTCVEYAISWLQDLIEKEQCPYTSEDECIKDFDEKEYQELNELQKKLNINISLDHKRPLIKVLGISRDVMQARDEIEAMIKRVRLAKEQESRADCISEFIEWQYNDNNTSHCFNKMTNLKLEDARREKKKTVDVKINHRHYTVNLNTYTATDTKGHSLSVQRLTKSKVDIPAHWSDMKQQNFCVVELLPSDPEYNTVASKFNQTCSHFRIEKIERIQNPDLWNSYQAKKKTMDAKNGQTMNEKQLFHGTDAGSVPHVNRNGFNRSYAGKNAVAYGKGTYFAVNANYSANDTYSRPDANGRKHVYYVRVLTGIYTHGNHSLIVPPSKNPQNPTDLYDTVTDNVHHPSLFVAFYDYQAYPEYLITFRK
row,SMILES,DC50
1,"O=C1CCN(c2cnc3cc(C4CCN(CCN5CCC(COc6cc(F)c7c(=O)[nH]c(CSC8CCOCC8)nc7c6)CC5)CC4)ccn23)C(=O)N1 [Example 211, 1-(7-(1-(2-(4-(((5-fluoro-4-oxo-2-(((tetrahydro-2H-pyran-4-yl)thio)methyl)-3,4-dihydroquinazolin-7-yl)oxy)methyl)piperidin-1-yl)ethyl)piperidin-4-yl)imidazo[1,2-a]pyridin-3-yl)dihydropyrimidine-2,4(1H,3H)-dione]",< 0.03 µM
2,"Cn1nc(N2CCC(=O)NC2=O)c2cc(F)c(N3CCN(CCN4CCC(COc5cc(F)c6c(=O)[nH]c(CSC7CCOCC7)nc6c5)CC4)CC3)cc21 [Example 212, 1-(5-fluoro-6-(4-(2-(4-(((5-fluoro-4-oxo-2-(((tetrahydro-2H-pyran-4-yl)thio)methyl)-3,4-dihydroquinazolin-7-yl)oxy)methyl)piperidin-1-yl)ethyl)piperazin-1-yl)-1-methyl-1H-indazol-3-yl)dihydropyrimidine-2,4(1H,3H)-dione]",< 0.03 µM
3,"O=C1CCC(Nc2ccc(N3CCN(CC4CCN(CCOc5cc(F)c6c(=O)[nH]c(CSC7CCOCC7)nc6c5)CC4)CC3)c(F)c2)C(=O)N1 (centres unmarked) [Example 213, 3-((3-fluoro-4-(4-((1-(2-((5-fluoro-4-oxo-2-(((tetrahydro-2H-pyran-4-yl)thio)methyl)-3,4-dihydroquinazolin-7-yl)oxy)ethyl)piperidin-4-yl)methyl)piperazin-1-yl)phenyl)amino)piperidine-2,6-dione]",< 0.03 µM
4,"O=C1CCC(Nc2ccc(N3CCC4(CCN(CCOc5cc(F)c6c(=O)[nH]c(CSC7CCOCC7)nc6c5)CC4)CC3)c(F)c2)C(=O)N1 (centres unmarked) [Example 215, 3-((3-fluoro-4-(9-(2-((5-fluoro-4-oxo-2-(((tetrahydro-2H-pyran-4-yl)thio)methyl)-3,4-dihydroquinazolin-7-yl)oxy)ethyl)-3,9-diazaspiro[5.5]undecan-3-yl)phenyl)amino)piperidine-2,6-dione]",< 0.03 µM
5,"O=C1CCC(Nc2ccc(N3CCN(CCN4CCC(COc5cc(F)c6c(=O)[nH]c(CCC7CCOCC7)nc6c5)CC4)CC3)cc2F)C(=O)N1 (centres unmarked) [Example 216, 3-((2-fluoro-4-(4-(2-(4-(((5-fluoro-4-oxo-2-(2-(tetrahydro-2H-pyran-4-yl)ethyl)-3,4-dihydroquinazolin-7-yl)oxy)methyl)piperidin-1-yl)ethyl)piperazin-1-yl)phenyl)amino)piperidine-2,6-dione]",< 0.03 µM

# Now from value to compound:
row,DC50,SMILES
1,< 0.03 µM,"O=C1CCC(Nc2ccc(N3CCC(N4CCC(N5CCC(COc6cc(F)c7c(=O)[nH]c(CSC8CCOCC8)nc7c6)CC5=O)CC4)CC3)c(F)c2)C(=O)N1 (centres unmarked) [Example 214, 3-((3-fluoro-4-(4-(((5-fluoro-4-oxo-2-(((tetrahydro-2H-pyran-4-yl)thio)methyl)-3,4-dihydroquinazolin-7-yl)oxy)methyl)-2-oxo-[1,4′:1′,4″-terpiperidin]-1″-yl)phenyl)amino)piperidine-2,6-dione formate]"
2,< 0.03 µM,"O=C1CCC(Nc2ccc(N3CCC(CN4CC(N5CCC(COc6cc(F)c7c(=O)[nH]c(CSC8CCOCC8)nc7c6)CC5)C4)CC3)c(F)c2)C(=O)N1 (centres unmarked) [Example 217, 3-((3-fluoro-4-(4-((3-(4-(((5-fluoro-4-oxo-2-(((tetrahydro-2H-pyran-4-yl)thio)methyl)-3,4-dihydroquinazolin-7-yl)oxy)methyl)piperidin-1-yl)azetidin-1-yl)methyl)piperidin-1-yl)phenyl)amino)piperidine-2,6-dione formate]"
3,< 0.03 µM,"O=C1CCC(Nc2cc(F)c(N3CCC(N4CC(N5CCC(COc6cc(F)c7c(=O)[nH]c(CSC8CCOCC8)nc7c6)CC5)C4)CC3)cc2F)C(=O)N1 (centres unmarked) [Example 218, 3-((2,5-difluoro-4-(4-(3-(4-(((5-fluoro-4-oxo-2-(((tetrahydro-2H-pyran-4-yl)thio)methyl)-3,4-dihydroquinazolin-7-yl)oxy)methyl)piperidin-1-yl)azetidin-1-yl)piperidin-1-yl)phenyl)amino)piperidine-2,6-dione]"

# — patent US20240101540A1, “TARGETED PROTEIN DEGRADATION OF PARP14 FOR USE IN THERAPY” (Ribon Therapeutics, Inc., priority 2022, published 2024)
